This note sets out measurements from ChEMBL document CHEMBL1127437, “Novel benzisoxazole derivatives as potent and selective inhibitors of acetylcholinesterase” (J Med Chem, 1994).

Where only a bound is given, the exact number is not on record here.

Experiment [1] deals with Mus musculus. The experiment in a line: In vivo activity was determined by measuring […] in mouse forebrain. In kind it is functional.
Another experiment concerns the target Acetylcholinesterase (Homo sapiens, UniProt P22303).
For the next experiment, the target named is Butyrylcholinesterase (Equus caballus, UniProt Q9N1N9).
The species entered for experiment [2] is Mus musculus. The experiment in a line: animal or person.
Description: Tested for effective dose for elevation of Acetylcholinesterase (AChE) in mouse forebrain
The test system of experiment [3] is Mus musculus. The experiment can be described thus: Tested for effective dose for […] by peroral administration in vivo in mouse. In kind it is functional. The note with it: po.

Acetylcholinesterase, sequence (P22303 whole entry): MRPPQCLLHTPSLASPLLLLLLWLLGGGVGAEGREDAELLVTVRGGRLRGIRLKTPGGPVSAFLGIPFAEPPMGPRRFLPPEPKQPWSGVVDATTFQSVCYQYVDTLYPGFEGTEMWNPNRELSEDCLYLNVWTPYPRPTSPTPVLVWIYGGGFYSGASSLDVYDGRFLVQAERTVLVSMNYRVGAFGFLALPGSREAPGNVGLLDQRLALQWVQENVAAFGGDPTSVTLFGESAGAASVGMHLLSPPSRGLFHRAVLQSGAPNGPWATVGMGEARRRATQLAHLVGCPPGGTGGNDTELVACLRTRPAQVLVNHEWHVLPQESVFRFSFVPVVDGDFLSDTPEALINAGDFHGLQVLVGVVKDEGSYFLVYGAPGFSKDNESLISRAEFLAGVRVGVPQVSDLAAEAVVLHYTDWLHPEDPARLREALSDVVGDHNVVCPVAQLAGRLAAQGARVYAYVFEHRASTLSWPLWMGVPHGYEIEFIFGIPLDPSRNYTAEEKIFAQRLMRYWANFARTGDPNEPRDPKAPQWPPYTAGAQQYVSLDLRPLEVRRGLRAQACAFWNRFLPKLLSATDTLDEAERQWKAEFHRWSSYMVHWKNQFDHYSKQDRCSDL
Butyrylcholinesterase, sequence (Q9N1N9 whole entry): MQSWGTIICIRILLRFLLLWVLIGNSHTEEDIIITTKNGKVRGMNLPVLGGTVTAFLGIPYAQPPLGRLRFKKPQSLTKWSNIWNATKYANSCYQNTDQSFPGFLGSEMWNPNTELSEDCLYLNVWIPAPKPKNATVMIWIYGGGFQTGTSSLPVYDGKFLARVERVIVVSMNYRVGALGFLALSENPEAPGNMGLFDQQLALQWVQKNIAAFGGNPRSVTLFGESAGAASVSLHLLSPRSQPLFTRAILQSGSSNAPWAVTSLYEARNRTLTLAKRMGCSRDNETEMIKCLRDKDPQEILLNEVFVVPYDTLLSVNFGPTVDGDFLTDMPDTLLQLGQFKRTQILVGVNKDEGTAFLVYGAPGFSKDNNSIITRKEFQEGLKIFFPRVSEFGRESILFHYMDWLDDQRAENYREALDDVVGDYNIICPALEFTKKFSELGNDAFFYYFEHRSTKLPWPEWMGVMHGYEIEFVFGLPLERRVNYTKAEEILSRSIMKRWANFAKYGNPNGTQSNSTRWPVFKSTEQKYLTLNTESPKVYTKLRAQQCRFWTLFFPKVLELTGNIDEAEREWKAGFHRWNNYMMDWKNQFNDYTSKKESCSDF
Description for Acetylcholinesterase: Evaluated for the in vitro inhibition of the Acetylcholinesterase (AChE) from human erythrocytes
Description for Butyrylcholinesterase: Compound was evaluated for the in vitro inhibition of the Butyrylcholinesterase from horse serum

Usually ED50 stands for the dose that gives a 50% effect, or the effect in half of the subjects. Read a low ED50 as an effect at a small dose. For `O=C(Nc1ccc2c(CCC3CCN(Cc4ccccc4)CC3)noc2c1)c1ccccc1`, the ED50 in the experiment on Mus musculus [1] is > 100 mg/kg.
For orientation: IC50 means the concentration that inhibits the measured activity by half. A low value points to greater potency. Regarding `Cc1cc2onc(CCC3CCN(Cc4ccccc4)CC3)c2cc1C`, it took 5.8 nM to reach half-maximal inhibition against Acetylcholinesterase (IC50).
On to `c1ccc(CN2CCC(CCc3ncnc4ccccc34)CC2)cc1`, for which inhibition on Acetylcholinesterase was half-maximal at 340 nM (IC50).
Molecule `CNC(=O)Oc1ccc2c(c1)[C@]1(C)CCN(C)[C@@H]1N2C` [PHYSOSTIGMINE] returned a half-inhibitory concentration (IC50) against Butyrylcholinesterase of 73 nM.
Take `COc1cc2c(cc1OC)C(=O)C(CC1CCN(Cc3ccccc3)CC1)C2` (stereo not drawn) [DONEPEZIL]: the 50% effect level in the experiment listed under Mus musculus [2] (ED50) was put at a dose of 14 mg/kg.
As for `CC(=O)Nc1ccc2c(CCC3CCN(Cc4ccccc4)CC3)noc2c1`, the ED50 in the experiment on Mus musculus [3] stood at 2.4 mg/kg. The 50% inhibitory concentration (IC50) was 2.8 nM against Acetylcholinesterase and 9000 nM on Butyrylcholinesterase.
The molecule `Cc1ccc2onc(CCC3CCN(Cc4ccccc4)CC3)c2c1` registered a half-maximal inhibitory concentration (IC50) at Acetylcholinesterase of 7.8 nM.
At Acetylcholinesterase, `Brc1ccc2c(CCC3CCN(Cc4ccccc4)CC3)noc2c1` gave an IC50 of 50 nM.
The molecule `c1ccc(CN2CCC(CCc3noc4cc(N5CCOCC5)ccc34)CC2)cc1` yielded an IC50 against Butyrylcholinesterase of 4700 nM.
The molecule `N#Cc1ccc2c(CCC3CCN(Cc4ccccc4)CC3)noc2c1` yielded an IC50 against Acetylcholinesterase of 101 nM.
On the same count and under the same terms, the figure for `O=S(=O)(Nc1ccc2c(CCC3CCN(Cc4ccccc4)CC3)noc2c1)c1ccccc1` is 14 nM.
